Source: PubChem BioAssay (NCI)
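GI50 is the concentration that inhibits growth by half. TGI: concentration producing complete growth inhibition.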

Assays:
Test in all cases: DTP human tumour cell line panel, 384-well format
SR leukemia = system: SR leukemia
HT29 colon = system: HT29 colon
SF-295 CNS = system: SF-295 CNS
SNB-75 CNS = system: SNB-75 CNS
OVCAR-8 ovarian = system: OVCAR-8 ovarian
NCI-H322M lung = system: NCI-H322M lung
PC-3 prostate = system: PC-3 prostate
OVCAR-3 ovarian = system: OVCAR-3 ovarian
TK-10 renal = system: TK-10 renal
NCI-H226 lung = system: NCI-H226 lung
EKVX NSCLC = system: EKVX NSCLC
SK-OV-3 ovarian = system: SK-OV-3 ovarian
A498 renal = system: A498 renal
NCI/ADR-RES ovarian = system: NCI/ADR-RES ovarian
SK-MEL-5 melanoma = system: SK-MEL-5 melanoma
UACC-257 melanoma = system: UACC-257 melanoma
HOP-62 NSCLC = system: HOP-62 NSCLC
MDA-MB-435 melanoma = system: MDA-MB-435 melanoma
UACC-62 melanoma = system: UACC-62 melanoma
OVCAR-5 ovarian = system: OVCAR-5 ovarian
SF-539 CNS = system: SF-539 CNS
M14 melanoma = system: M14 melanoma
HOP-92 NSCLC = system: HOP-92 NSCLC
MCF7 breast = system: MCF7 breast
CAKI-1 renal = system: CAKI-1 renal
SF-268 CNS = system: SF-268 CNS
786-0 renal = system: 786-0 renal
MALME-3M melanoma = system: MALME-3M melanoma
SNB-19 CNS = system: SNB-19 CNS
RXF 393 renal = system: RXF 393 renal
NCI-H23 lung = system: NCI-H23 lung
IGROV1 ovarian = system: IGROV1 ovarian
A549 NSCLC = system: A549 NSCLC
T-47D breast = system: T-47D breast
BT-549 breast = system: BT-549 breast
SW-620 colon = system: SW-620 colon
ACHN renal = system: ACHN renal
UO-31 renal = system: UO-31 renal
OVCAR-4 ovarian = system: OVCAR-4 ovarian
CCRF-CEM leukemia = system: CCRF-CEM leukemia
HL-60(TB) leukemia = system: HL-60(TB) leukemia
COLO 205 colon = system: COLO 205 colon
LOX IMVI melanoma = system: LOX IMVI melanoma
HS 578T breast = system: HS 578T breast
RPMI-8226 leukemia = system: RPMI-8226 leukemia
MDA-MB-231 breast = system: MDA-MB-231 breast
NCI-H522 lung = system: NCI-H522 lung
KM12 colon = system: KM12 colon
K-562 leukemia = system: K-562 leukemia
MDA-MB-468 breast = system: MDA-MB-468 breast
SK-MEL-28 melanoma = system: SK-MEL-28 melanoma
DU-145 prostate = system: DU-145 prostate
HCC-2998 colon = system: HCC-2998 colon
SN12C renal = system: SN12C renal
HCT-15 colon = system: HCT-15 colon
MOLT-4 leukemia = system: MOLT-4 leukemia
NCI-H460 NSCLC = system: NCI-H460 NSCLC

With CN1C(=O)C(C)(C)Oc2c(-c3cn(C)c(=O)c4[nH]ccc34)cc(S(C)(=O)=O)cc21 the GI50 (SR leukemia) was 0.0728 µM, the TGI (SR leukemia) was 0.531 µM and the GI50 (HT29 colon) was 0.196 µM. It also gave a TGI (HT29 colon) of 7.84 µM, a GI50 (SF-295 CNS) of 1.05 µM and a TGI (SF-295 CNS) of 7.54 µM. The GI50 (SNB-75 CNS) was 0.343 µM, the TGI (SNB-75 CNS) was 7.57 µM and the GI50 (OVCAR-8 ovarian) was 0.235 µM. The TGI (OVCAR-8 ovarian) was 1.19 µM, the GI50 (NCI-H322M lung) was 0.441 µM and the TGI (NCI-H322M lung) was 3.9 µM. It also gave a GI50 (PC-3 prostate) of 1.04 µM, a TGI (PC-3 prostate) of 50.7 µM and a GI50 (OVCAR-3 ovarian) of 0.232 µM. It also gave a TGI (OVCAR-3 ovarian) of 1.18 µM, a GI50 (TK-10 renal) of 0.279 µM and a TGI (TK-10 renal) of 1.17 µM. For the same compound, the GI50 (NCI-H226 lung) was 0.223 µM, the TGI (NCI-H226 lung) was 1.71 µM and the GI50 (EKVX NSCLC) was 1.51 µM. The TGI (EKVX NSCLC) was 11.1 µM, the GI50 (SK-OV-3 ovarian) was 0.237 µM and the TGI (SK-OV-3 ovarian) was 1.56 µM. For the same compound, the GI50 (A498 renal) was 0.381 µM, the TGI (A498 renal) was 11.5 µM and the GI50 (NCI/ADR-RES ovarian) was 5.65 µM. For the same compound, the TGI (NCI/ADR-RES ovarian) was 45.9 µM, the GI50 (SK-MEL-5 melanoma) was 0.178 µM and the TGI (SK-MEL-5 melanoma) was 1.14 µM. For the same compound, the GI50 (UACC-257 melanoma) was 0.206 µM, the TGI (UACC-257 melanoma) was 1.33 µM and the GI50 (HOP-62 NSCLC) was 0.287 µM. For the same compound, the TGI (HOP-62 NSCLC) was 2.27 µM, the GI50 (MDA-MB-435 melanoma) was 0.868 µM and the TGI (MDA-MB-435 melanoma) was 12.7 µM. The GI50 (UACC-62 melanoma) was 0.0687 µM, the TGI (UACC-62 melanoma) was 0.891 µM and the GI50 (OVCAR-5 ovarian) was 0.271 µM. For the same compound, the TGI (OVCAR-5 ovarian) was 2.24 µM, the GI50 (SF-539 CNS) was 0.274 µM and the TGI (SF-539 CNS) was 1.05 µM. For the same compound, the GI50 (M14 melanoma) was 0.364 µM, the TGI (M14 melanoma) was 16.3 µM and the GI50 (HOP-92 NSCLC) was 0.149 µM. It also gave a TGI (HOP-92 NSCLC) of 1.85 µM, a GI50 (MCF7 breast) of 0.0847 µM and a TGI (MCF7 breast) of 0.949 µM. The GI50 (CAKI-1 renal) was 0.229 µM, the TGI (CAKI-1 renal) was 2.15 µM and the GI50 (SF-268 CNS) was 0.728 µM. For the same compound, the TGI (SF-268 CNS) was 3.49 µM, the GI50 ([…]-0 renal) was 0.355 µM and the TGI (786-0 renal) was 7.36 µM. For the same compound, the GI50 (MALME-3M melanoma) was 0.115 µM, the TGI (MALME-3M melanoma) was 0.731 µM and the GI50 (SNB-19 CNS) was 0.423 µM. For the same compound, the TGI (SNB-19 CNS) was 7.13 µM, the GI50 (RXF 393 renal) was 1.73 µM and the TGI (RXF 393 renal) was 10.7 µM. The GI50 (NCI-H23 lung) was 0.257 µM, the TGI (NCI-H23 lung) was 1.57 µM and the GI50 (IGROV1 ovarian) was 0.329 µM. For the same compound, the TGI (IGROV1 ovarian) was 1.39 µM, the GI50 (A549 NSCLC) was 0.389 µM and the TGI (A549 NSCLC) was 7.08 µM. The GI50 (T-47D breast) was 0.156 µM, the TGI (T-47D breast) was 0.865 µM and the GI50 (BT-549 breast) was 0.164 µM. The TGI (BT-549 breast) was 0.785 µM, the GI50 (SW-620 colon) was 1.28 µM and the TGI (SW-620 colon) was 5.61 µM. For the same compound, the GI50 (ACHN renal) was 1.48 µM, the TGI (ACHN renal) was 11 µM and the GI50 (UO-31 renal) was 2.56 µM. For the same compound, the TGI (UO-31 renal) was > 100 µM, the GI50 (OVCAR-4 ovarian) was 0.114 µM and the TGI (OVCAR-4 ovarian) was 0.346 µM. For the same compound, the GI50 (CCRF-CEM leukemia) was 0.174 µM, the TGI (CCRF-CEM leukemia) was 1.39 µM and the GI50 (HL-60(TB) leukemia) was 0.0485 µM. The TGI (HL-60(TB) leukemia) was 0.184 µM, the GI50 (COLO 205 colon) was 0.228 µM and the TGI (COLO 205 colon) was 1.39 µM. The GI50 (LOX IMVI melanoma) was 0.157 µM, the TGI (LOX IMVI melanoma) was 0.327 µM and the GI50 (HS 578T breast) was 0.0652 µM. The TGI (HS 578T breast) was 0.349 µM, the GI50 (RPMI-8226 leukemia) was 0.0234 µM and the TGI (RPMI-8226 leukemia) was 0.152 µM. It also gave a GI50 (MDA-MB-231 breast) of 0.168 µM, a TGI (MDA-MB-231 breast) of 2.26 µM and a GI50 (NCI-H522 lung) of 0.135 µM. For the same compound, the TGI (NCI-H522 lung) was 0.544 µM, the GI50 (KM12 colon) was 0.33 µM and the TGI (KM12 colon) was 1.91 µM. It also gave a GI50 (K-562 leukemia) of 0.268 µM, a TGI (K-562 leukemia) of 5.65 µM and a GI50 (MDA-MB-468 breast) of 0.114 µM. For the same compound, the TGI (MDA-MB-468 breast) was 0.439 µM, the GI50 (SK-MEL-28 melanoma) was 0.347 µM and the TGI (SK-MEL-28 melanoma) was 4.21 µM. The GI50 (DU-145 prostate) was 1.29 µM, the TGI (DU-145 prostate) was 22.9 µM and the GI50 (HCC-2998 colon) was 0.15 µM. It also gave a TGI (HCC-2998 colon) of 0.468 µM, a GI50 (SN12C renal) of 0.669 µM and a TGI (SN12C renal) of 3.55 µM. The GI50 (HCT-15 colon) was 0.34 µM, the TGI (HCT-15 colon) was 2.27 µM and the GI50 (MOLT-4 leukemia) was 0.22 µM. It also gave a TGI (MOLT-4 leukemia) of 1.01 µM, a GI50 (NCI-H460 NSCLC) of 1.16 µM and a TGI (NCI-H460 NSCLC) of 10.4 µM.
